The values that follow come from PMC8111499, “GW117: A novel serotonin (5‐HT2C) receptor antagonist and melatonin (MT1/MT2) receptor agonist with potential antidepressant‐like activity in rodents” (CNS Neuroscience & Therapeutics, 2021).

The subject of experiment [1] is mice. Description: Learned helplessness paradigm in mice. The experiment is classed as in vivo, ICR mice. The following applies: sub‐chronic (4 days), 10 mg/kg ig., after inescapable shock training. The method, then: For 4 consecutive days, mice were putted into the shuttle box device (40 × 10 × 13 cm), the device was splited into two compartments, and mice could free access. In the IS group, each mouse received 360 inescapable shocks (current intensity 0.30 mA, duration 2 s, 3‐13 s variable interval, about 1 h) over four consecutive training days. Animals in the NIS group underwent the same handling without receiving the foot shocks. 10 trials were conducted on mice to screen helpless, each of which includes conditioned stimulation period (3‐s lamp on), non‐conditioned stimulation period (3‐s lamp +shock), and interval period (without any stimulus, 25 s). […] The EF values were balanced for each group in the experiment. Using Graphic State software (Coulbourn Instruments Inc.,) recorded the number of escape failures and the latency to escape.

Details of experiment [2]: method as in PMID 31657152. The following applies: single dose; cited from earlier work.
For the next experiment, the system named is rats. Description: Forced swimming test in rats. Conditions: oral, 40 mg/kg. Format: in vivo, Sprague Dawley (SD) rats. The method, then:
The forced swimming test (FST) was conducted as described earlier. ^30 Eighty naive rats were randomized into eight treatment groups (n = 9‐12/group). All rats received a single drug administration (p.o.). The procedure consisted of two sessions, to be specific, a pre‐test session and a test session. A cylindrical container (diameter, 20 cm; height, 40 cm; including 30 cm of water and kept at 25℃) was used. During the pre‐test phase, rats were required to perform forced swimming for 15 min. The test session was performed 24 h later, put the rats in the same cylindrical container for 5 min and immobility duration over 5 min recorded. […] Rats were considered immobile when they entered a floating posture, specifically, immobile, passive, and with their heads above water.

A further experiment deals with T1, 5‐HT2C receptor (Rattus norvegicus, UniProt P08909).
T1 construct: 5‐HT2C receptor membrane protein was extracted from rat hippocampus and a stably transfected HEK293 cell line; from tissue; host or cells: rat hippocampus
T1 sequence (P08909 33-460): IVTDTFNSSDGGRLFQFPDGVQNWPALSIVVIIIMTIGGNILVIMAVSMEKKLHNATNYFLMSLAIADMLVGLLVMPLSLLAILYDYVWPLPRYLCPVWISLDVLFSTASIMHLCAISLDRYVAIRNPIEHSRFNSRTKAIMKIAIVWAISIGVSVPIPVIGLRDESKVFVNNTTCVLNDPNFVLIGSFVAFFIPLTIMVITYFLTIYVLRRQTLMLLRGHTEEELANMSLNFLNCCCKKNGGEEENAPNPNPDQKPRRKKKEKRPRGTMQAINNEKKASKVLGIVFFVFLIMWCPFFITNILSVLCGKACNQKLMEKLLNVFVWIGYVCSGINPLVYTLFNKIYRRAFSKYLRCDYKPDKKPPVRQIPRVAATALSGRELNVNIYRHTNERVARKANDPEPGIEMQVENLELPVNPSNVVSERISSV
Briefly: 5‐HT2C receptor binding assay ([3H]‐LSD competition). The following applies: mean ± SEM, three independent experiments. The method, then:
Hippocampal membrane preparations were obtained using previously described methods. ^24 , ^25 , ^26 Briefly, rats were decapitated and their brains were rapidly removed. Next, the hippocampus was dissected and subsequently homogenized in 40 volumes of ice‐cold buffer (50 mM Tris‐HCl Buffer, pH 7.4) and then centrifuged at 40,000 × g at 4°C for 10 min. The particles were re‐suspended and centrifuged again. In order to remove endogenous monoamines, the final suspension was incubated at 37°C for 20 min and then centrifuged as usual. The final pellets were frozen at −80°C at once for up to 1 week.
Human MT1/MT2 receptor membrane proteins were obtained from Perkin‐Elmer (ES‐620 [MT1] and ES‐621 [MT2]). The stably transfected 5‐HT2C receptor HEK293 cell line was prepared using a nucleus‐cytoplasm‐membrane preparation kit (Applagin Technologies Inc.). Briefly, cells were harvested at 4°C, 110 00 × g and centrifugation for 5 min. Homogenize pellets in the assay buffer (50 mM Tris‐HCl buffer containing 120 mM NaCl and 5 mM KCl, pH 7.4) and then centrifuged twice at 4°C, 36,000 × g for 15 min. […]
Receptor membrane protein, 5‐HT2C (50 μl), was added to all the tubes. Non‐specific binding was determined by the presence of unlabeled 10 μM 5‐HT and pre‐reacted for 30 min. […] Finally, 1 ml of scintillation fluid was added and the radioactive intensity measured by liquid scintillation counting.

In another experiment the target is T2, MT2 receptor (Homo sapiens, UniProt P49286).
T2 construct: purchased Perkin‐Elmer ES‐621
T2 sequence (P49286 1-362): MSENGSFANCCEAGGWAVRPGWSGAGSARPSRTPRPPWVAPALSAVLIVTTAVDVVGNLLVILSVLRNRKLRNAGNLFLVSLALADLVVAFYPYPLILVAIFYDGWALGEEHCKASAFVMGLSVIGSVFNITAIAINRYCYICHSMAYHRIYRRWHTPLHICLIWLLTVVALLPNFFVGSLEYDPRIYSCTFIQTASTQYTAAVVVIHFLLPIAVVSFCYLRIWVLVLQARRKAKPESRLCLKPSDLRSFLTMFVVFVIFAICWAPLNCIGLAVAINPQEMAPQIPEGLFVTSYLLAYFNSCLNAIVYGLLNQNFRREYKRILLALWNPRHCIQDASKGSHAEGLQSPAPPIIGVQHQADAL
Briefly: [35S]‐GTPγS binding assay, MT2. The experiment is classed as biochemical. Conditions: [35S]‐GTPγS binding; read-out: maximal increase over basal binding (% Emax), MT2 receptor. As for the experimental part: (§1) This experiment was mentioned earlier. ^27 In short, HEK293 cell membrane stably expressing human 5‐HT2C receptors or rat hippocampal tissue membrane or MT1/MT2 receptors was re‐suspended in buffer (50 mmol/L Tris, 100 mmol/L NaCl, 5 mmol/L MgCl2·6H2O, 0.1 mmol/L EDTA‐Na2·6H2O, 0.2 mmol/L EGTA, pH 7.4) and incubated with the test compound (100 μM GDP, 0.2 nM [^35S]‐GTP, or [^3H]PIP) for 60 min at 28℃. At the end of the experiment, Whatman GF/C filters pre‐soaked with distilled water were used for rapid filtration followed by washing with 5 ml of ice‐cold Tris buffer. Determination of non‐specific binding in the presence of GTPγS and radioactivity was measured by liquid scintillation counting. Calculation of the concentration produces a half‐maximal effect (EC50) and the maximal increase above the baseline value.
Background: GTPγS resists hydrolysis and so accumulates on activated G proteins.

Experiment [3] has as its system mice. Description: Tail suspension test in mice. The experiment is classed as in vivo, ICR mice. The following applies: oral, 10, 20 or 40 mg/kg, vs. vehicle. As for the experimental part: The tail suspension test (TST) was conducted as described earlier. ^28 , ^29 Eighty naive mice were randomly divided into eight treatment groups (n = 10/group). All mice received a single dose of the drug (p.o.). After 60 min of gavage administration, mice were suspended from the top of the apparatus (25 × 25 × 35 cm) using tape about 1 cm from the tail tip. The duration of immobility was recorded in the last 4 min for a total of 6 min. When mice are passively suspended immobile, they are judged to be stationary.

In the next experiment the target is T3, MT1 receptor (Homo sapiens, UniProt P48039).
T3 construct: purchased Perkin‐Elmer ES‐620
T3 sequence (P48039 whole entry): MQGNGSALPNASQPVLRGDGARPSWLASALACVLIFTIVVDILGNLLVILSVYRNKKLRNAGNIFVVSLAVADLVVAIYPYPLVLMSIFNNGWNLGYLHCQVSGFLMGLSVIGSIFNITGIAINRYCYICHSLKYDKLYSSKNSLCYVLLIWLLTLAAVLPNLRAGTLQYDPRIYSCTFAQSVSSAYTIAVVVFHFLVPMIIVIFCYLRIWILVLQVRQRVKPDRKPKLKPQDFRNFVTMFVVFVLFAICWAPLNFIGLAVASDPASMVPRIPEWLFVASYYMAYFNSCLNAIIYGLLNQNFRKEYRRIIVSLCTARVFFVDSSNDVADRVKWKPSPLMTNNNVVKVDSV
Briefly: [35S]‐GTPγS binding assay, MT1. The experiment is classed as biochemical. Conditions: [35S]‐GTPγS binding; read-out: maximal increase over basal binding (% Emax), MT1 receptor. The method, then:
as §1

A further experiment relates to CUS rats. Description: Novelty‐suppressed feeding test in the CUS model. The experiment is classed as in vivo. Conditions: chronic, 10 mg/kg. The method, then: In order to further examine the antidepressant effects of GW117, chronic unpredictable stress (CUS) model was utilized; the methods were as described before. ^29 , ^31 After 1 week of training, rats underwent sucrose training of 48 h. After training, a sucrose baseline test was performed. […] Gastric gavage was given 1 h before the stress (08:00–09:00). Except for the non‐stressed group, all rats were stimulated by a series of stressors. stress methods included the following: fast on food and water (24 h), moisture cage (150 g sawdust bedding in 200 ml water), overnight illumination, low‐intensity strobe illumination (100 flashes/min), forced swimming (5 min at 10℃), white noise (110 dB), tail pinch (1 cm from tail root, 6 min), 45℃ cage tilt, and restraint (1–2 h). Stressors need to be used continuously and randomly. Non‐stressed rats received free food and water, but were required to fast for 14 h before sucrose preference test. After 4 weeks of stress, the sucrose preference test (SPT) (on day 25), open field test (OFT) (on day 28), and novelty‐suppressed feeding (NSF) test (on day 29) were carried out. […]

As to `CNCCC(Oc1ccc(C(F)(F)F)cc1)c1ccccc1` (stereo not drawn) [Fluoxetine, reference compound], the “deficit of avoidance behavior (escape latency and number of escape failures)” value in the experiment on mice [1] is listed as “significantly reversed the deficit of avoidance behavior”.
On to `CNC1(c2ccccc2Cl)CCCCC1=O` (stereo not drawn) [ketamine], for which, in experiment [2], the “duration of rapid antidepressant response” value is listed as “at least three” and the “mean onset time of rapid antidepressant response” value was “four”.
On to `COc1ccc2cccc(CCNC(C)=O)c2c1` [Agomelatine, reference compound], for which the “immobility time in FST” value with rats is listed as “significantly decreased the immobility time”. For the same compound, the inhibition constant (Ki) (as a rule, the dissociation constant of the complex between target and ligand, obtained from inhibition or displacement) at 5‐HT2C receptor is 0.64 ± 0.25 nM. The values for the maximal response (Emax) at MT2 receptor and on MT1 receptor were 101 ± 4.56% and 94 ± 7.34%, respectively. In addition, in the experiment with mice [3], the “immobility time in TST” value is listed as “had no effect on immobility time”. For the same compound, the “feeding latency in NSF test” value with CUS rats is “not effective”.
